# Experimental data as given in patent US20220151979A1, “COMPOSITION FOR PREVENTION OR TREATMENT OF CARDIOVASCULAR AND METABOLIC DISEASE COMPRISING NORANHYDROICARITIN” (SEOUL NATIONAL UNIVERSITY HOSPITAL, priority 2019, published 2022).
# Assays:
# TNF-α = assay: Immunofluorescence of TNF-α in carotid artery, mouse arteriosclerosis model; type: in vivo; details: 10 μg/g/day
# Description: (§1) Carotid artery ligation was performed one week after injection of AAV-PCSK9 Virus (1×10^11 IFU/mL) and noranhydroicaritin (10 μg/g/day). After 3 weeks of ligation, it was confirmed whether the atherosclerosis model was completed, and gross plaque imaging and immunofluorescence were performed to confirm the arteriosclerosis inhibitory effect of noranhydroicaritin.
# (§2) Furthermore, the arteriosclerosis inhibitory effect of noranhydroicaritin was confirmed using immunofluorescence. Specifically, a mouse carotid artery was obtained and fixed in 4% PFA for one day, and then prepared into a block. As the inflammatory response in blood vessels progresses, the arteriosclerosis worsens, and thus the marker […] of macrophages causing arteriosclerotic inflammatory response and TNF-α, IL-1B, and MCP-1, which are pro-inflammatory cytokines secreted when the inflammatory response occurs, were stained. Staining was performed using the antibody for each of CAP1(1:200), PCSK9(1:100), F4/80(1:100), TNF-α(1:100), […], and MCP-1(1:100), then imaging was performed using a confocal microscope, and […] was evaluated.
# F/480 = assay: Immunofluorescence of macrophage marker F/480 in carotid artery, mouse arteriosclerosis model; type: in vivo; details: 10 μg/g/day
# Description: as §1, §2
# PCSK9 mRNA = PCSK9 mRNA by RealTime-PCR in HepG2 cells; type: cell-based, human; details: 24 hours
# Text: Proprotein convertase subtilisin/kexin type 9 (PCSK9) is an enzyme involved in lipid metabolism and is attached to low-density lipoprotein receptor (LDLR) bound to low-density lipoprotein (LDL) in the liver or other cell membranes to degrade LDLR so that LDLR cannot be regenerated into the cell membrane and cannot absorb extracellular LDL. Therefore, inhibition of PCSK9 production increases LDLR, decreases extracellular LDL, and lowers cholesterol levels, and thus lipid metabolism-related diseases may be alleviated. Therefore, in order to confirm the PCSK9 production inhibitory effect of noranhydroicaritin, HepG2 cells were treated with noranhydroicaritin at various concentrations, and then the relative quantity of PCSK9 mRAN was confirmed through RealTime-PCR.
# Specifically, HepG2 cells were suspended at a concentration of 2.5×10^5 cells/mL, and 1 mL thereof was inoculated into each well of a […], and then maintained for one day. The HepG2 cells in the well plate were treated with kaempferol and noranhydroicaritin at concentrations of 2.5 μM, 5 μM, 10 μM, and 20 μM, and incubated for 24 hours, and then RNA was recovered, quantified, and stored at −70° C. Thereafter, cDNA was synthesized from the RNA and the quantity of PCSK9 mRNA was confirmed through RealTime-PCR analysis. The group treated only with DMSO was used as a negative control. […]
# LDLR = assay: Immunoblot of LDLR in HepG2 cells; type: cell-based, human; details: HepG2 cells, 5, 10, 20 μM
# Description: In order to confirm the effect of noranhydroicaritin to inhibit PCSK9 expression and increase LDLR expression, immunoblotting targeting PCSK9 and LDLR was performed and the expression levels were compared. β-Actin was used as a control.
# In a 100 mm Petri dish, 1×10^6 HepG2 cells were aliquoted and treated with noranhydroicaritin at various concentrations (5 μM, 10 μM, and 20 μM), and then the cells were removed from the cell-culture dish and homogenized using a protein extraction solution (NP40, ELPIS BIOTECH, Korea) containing a protease inhibitor cocktail (Roche).
# In order to prepare the total protein, the cells were extracted in RIPA lysis buffer (50 mM Tris-HCl (pH 7.4), 150 mM NaCl, 5 mM EDTA, 5 mM EGTA, 5 mM sodium fluoride, 2 mM sodium orthovanadate, 1% NP-40, 0.1% sodium dodecyl sulfate [SDS], 1 mM phenylmethylsulfonyl fluoride [PMSF], and protein inhibitor cocktail [Roche Diagnostics, Heidelberg, Germany]). The protein concentration in the lysate was measured using the Bio-Rad dye-binding micro assay. For immunoblotting, 30 μg of cell lysate was isolated via SDS-polyacrylamide gel electrophoresis (PAGE). The proteins were transferred onto the Hybond-ECL nitrocellulose membrane (Amersham Biosciences, Buckinghamshire, UK). […] HRP-conjugated secondary antibodies were detected using an ECL detection reagent.
# PCSK9 = assay: Immunoblot of PCSK9 in HepG2 cells, noranhydroicaritin and pravastatin, pitavastatin, fluvastatin or simvastatin (Table 1); type: cell-based, human; details: noranhydroicaritin 20 μM singly, untreated = 1 ± 0.04
# Description: The cells aliquoted by the method of Example 7 were treated with noranhydroicaritin or each statin (pravastatin, pitavastatin, fluvastatin, or simvastatin) singly or with noranhydroicaritin and a statin (pravastatin, pitavastatin, fluvastatin, or simvastatin) simultaneously, and the proteins were extracted. On an SDS-polyacrylamide gel, 30 μg of each protein was electrophoresed, and attached to a membrane, and then protein expression levels were confirmed using the respective antibodies: PCSK9 and LDLR.
# MCP-1 = assay: Immunofluorescence of MCP-1 in carotid artery, mouse arteriosclerosis model; type: in vivo; details: 10 μg/g/day
# Description: as §1, §2
structure (smiles),measurement,setting,value
"CC(C)=CCc1c(O)cc(O)c2c(=O)c(O)c(-c3ccc(O)cc3)oc12 [Noranhydroicaritin, noranhydroicaritin]",expression of TNF-α (immunofluorescence),TNF-α,decreased
same,"expression of F/480, a marker of macrophages (immunofluorescence)",F/480,also decreased
same,PCSK9 production inhibitory effect (quantity of PCSK9 mRNA),PCSK9 mRNA; 2.5 μM and 5 μM,remarkably superior to that of the control
same,PCSK9 production inhibitory effect (quantity of PCSK9 mRNA),PCSK9 mRNA; same concentration as control,superior to that of atorvastatin or rosuvastatin
same,LDLR expression (immunoblot),LDLR,increased in a concentration-dependent manner
same,PCSK9,PCSK9,0.34 ± 0.02
same,expression of MCP-1 (immunofluorescence),MCP-1,decreased
